{"source": "ChEMBL document CHEMBL5370648", "about": "“Rational Design of Bioorthogonally Activatable PROTAC for Tumor-Targeted Protein Degradation” (J Med Chem, 2023)", "key": {"MCF7 [1]": {"tested_on": "MCF7", "test": "Cytotoxicity against 12 hrs BODIPY-TZ treated human MCF7 cells assessed as inhbition of cell growth measured after 48 hrs by CCK-8 method", "type": "functional, cell-based"}, "[2]": {"target": "T1, von Hippel-Lindau disease tumor suppressor/Bromodomain-containing protein 4 (Homo sapiens, UniProt O60885+P40337)", "T1 sequence (P40337 whole entry, looked up, other chains not shown)": "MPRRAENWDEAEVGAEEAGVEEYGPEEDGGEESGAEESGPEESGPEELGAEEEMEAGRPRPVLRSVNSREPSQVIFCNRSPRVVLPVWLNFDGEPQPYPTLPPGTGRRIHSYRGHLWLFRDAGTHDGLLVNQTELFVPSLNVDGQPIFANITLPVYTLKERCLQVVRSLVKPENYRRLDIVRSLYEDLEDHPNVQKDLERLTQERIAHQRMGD", "test": "PROTAC activity at BRD4/VHL E3 ligase in 12 hrs BODIPY-TZ treated human T47D cells assessed as reduction in BRD4 expression at upto 2.0 uM incubated for 48 hrs by Western blot analysis", "type": "cell-based"}, "[3]": {"target": "T1, von Hippel-Lindau disease tumor suppressor/Bromodomain-containing protein 4", "test": "PROTAC activity at BRD4/VHL E3 ligase in human MDA-MB-231 cells assessed as induction of degradation of intracellular BRD4 at 200 nM incubated for 48 hrs by immunofluorescence staining assay", "type": "cell-based"}, "[4]": {"target": "T1, von Hippel-Lindau disease tumor suppressor/Bromodomain-containing protein 4", "test": "PROTAC activity at BRD4/VHL E3 ligase in 12 hrs BODIPY-TZ treated human T47D cells assessed as induction of degradation of BRD4 at upto 1000 nM incubated for 48 hrs in presence of MG132 by immunofluorescence staining assay", "type": "cell-based"}, "[5]": {"target": "T1, von Hippel-Lindau disease tumor suppressor/Bromodomain-containing protein 4", "test": "PROTAC activity at BRD4/VHL E3 ligase in 12 hrs BODIPY-TZ treated human T47D cells assessed as degradation of BRD4 expression incubated for 48 hrs by Western blot analysis", "type": "cell-based"}, "[6]": {"target": "T1, von Hippel-Lindau disease tumor suppressor/Bromodomain-containing protein 4", "test": "PROTAC activity at BRD4/VHL E3 ligase in 12 hrs BODIPY-TZ treated human MCF7 cells assessed as activation of caspase-3 expression incubated for 48 hrs by Western blot analysis", "type": "cell-based"}, "[7]": {"test": "Toxicity in BALB/c nude mouse assessed as animal death at 10 mg/kg measured after 16 days in presence of IR808-TZ", "type": "organism-based", "settings": "in vivo, 384 h, time 16 day"}, "[8]": {"target": "T1, von Hippel-Lindau disease tumor suppressor/Bromodomain-containing protein 4", "test": "In vivo PROTAC activity at BRD4/VHL E3 ligase in BALB/c nude mouse xenografted with human MCF7 cells assessed as reduction in BRD4 protein level in tumor 20 mg/kg measured after 48 hrs by Western blot analysis", "type": "functional, organism-based"}, "MCF7 [9]": {"tested_on": "MCF7", "test": "Antitumor activity against human MCF7 cells xenografted in BALB/c nude mouse assessed as apoptosis at 20 mg/kg measured after 48 hrs by Western blot analysis", "type": "functional, organism-based"}}, "note": "Activity calls are given as the source filed them. No cut-off for these calls is given here."}
{"smiles": "CC1=CC(C)=[N+]2C1=C(c1cccc(-c3nnc(C)nn3)c1)c1c(C)cc(C)n1[B-]2(F)F", "values": [{"measurement": "IC50", "setting": "MCF7 [1]", "result": 264, "unit": "nM"}, {"measurement": "Activity", "setting": "[2]", "result": "Active"}, {"measurement": "Activity", "setting": "[3]", "result": "inactive"}, {"measurement": "Activity", "setting": "[4]", "result": "inactive"}, {"measurement": "Activity", "setting": "[5]", "result": "Active"}, {"measurement": "Activity", "setting": "[6]", "result": "Active"}, {"measurement": "Activity", "setting": "[7]", "result": "Toxic"}, {"measurement": "Activity", "setting": "[8]", "result": "inactive"}, {"measurement": "Activity", "setting": "MCF7 [9]", "result": "inactive"}]}
